Each block holds one compound with its values, some of them ahead of it. Residues, ends and D or L forms follow the SMILES beside them.
Columns and labels:
[1] = test system: DQ2-restricted T cell clone 4E2
[2] = test system: DQ2-restricted 9C12 T cell clone; settings: 5 h
[3] = test system: DRβ1*1101 restricted T cell clone 1A5; settings: 5 h
[4] = test system: MELOE-1 specific CD4 T cell clones; test: Processing of epitopes by autologous DC loaded with antigen; TNF-α production of T cell clones; assay type: cell-based, human
Procedure: FIG. 4: Class II epitopes are naturally processed from MELOE-1 whole antigen. Autologous DC, were loaded (before or after fixation) with MELOE-12-46 (1 μM) or, as a negative control, with Melan-A16-40L peptide (1 μM), and matured. T cell clones were then stimulated with DC at a ratio 1:1, during 5 h in presence of Brefeldin A, then stained with APC-conjugated anti-CD3 mAb, fixed with 4% paraformaldehyde, labeled with PE-conjugated anti-TNF-α mAb and analyzed by flow cytometry. Histograms illustrated the % of TNF-α producing cells among CD3 positive T cells.
Monocytes were purified from PBMC of healthy donors by a CD14-enrichment kit, according the recommendations of the supplier (Stem Cell, France). Immature dendritic cells (iDC) were generated by culturing monocytes in RPMI supplemented with 20 mg/mL of human albumin, 1000 IU/mL of GM-CSF and 200 IU/mL of IL-4 for 5 days. Then, iDC were pulsed with the whole MELOE-1 (1 μM) protein or the modified Melan-A16-40 A27L as negative control (1 μM) and matured with 20 ng/mL of TNF-α and 50 μg/mL of PolyI:C for 4 hours at 37° C. Finally they were fixed for 1 minute with PBS/0.015% glutaraldehyde. Alternatively, iDC were first matured, fixed and then pulsed with antigens at the same concentration.
Alternatively, MELOE-1 specific CD4+ T cell clones were stimulated by autologous MELOE-1 loaded and matured DC at a 1:1 ratio. […]

[5] = test system: DRβ1*0101 restricted T cell clone 5F9; test: Minimal peptides recognized by CD4 T cell clone (peptide titration, TNF-α production); assay type: cell-based, human; settings: 5F9 T cell clone; 13-mer peptides
Procedure: FIG. 5: Minimal peptides recognized by MELOE-1 specific CD4 T cell clones. MELOE-1 specific CD4 T cell clones were incubated with various concentrations of the indicated peptides during 5 hours in presence of Brefeldin A. TNF-α production was assessed by intracellular labeling with an anti-TNF-α specific antibody. The core peptide sequence is indicated in bold on each figure panel, and black circles illustrate the best fitting peptide.
Our T cell clones were reactive against 20-mer peptides that are probably not the exact peptides naturally processed. In order to formally identify the minimal recognized epitopes, we tested shorter peptides derived from each of the MELOE-1 recognized regions, chosen on the basis of the core peptide sequence supposed to be recognized by the T cell clones (indicated in bold on FIG. 5).
Three shorter peptides were better recognized by the DQ2-restricted 9C12 T cell clone, the shortest one being MELOE-17-19 (13-mer), recognized with an EC50 of 100 nM. The deletion of the two amino acids in C-term strongly reduces T cell clone recognition. […] Nonetheless all of these clones recognized a series of shortened peptides, thus we cannot formally assess that the shortest ones will be the exact peptides naturally presented on class II molecules.

EC50 ([1]; 5 h): 100 nM
Compound: CC[C@H](C)[C@H](NC(=O)[C@H](CCCNC(=N)N)NC(=O)[C@@H](N)CCC(=O)O)C(=O)N[C@@H](CO)C(=O)N[C@@H](CO)C(=O)N[C@H](C(=O)N[C@@H](CC(C)C)C(=O)N[C@@H](CC(N)=O)C(=O)N[C@@H](CC(=O)O)C(=O)N[C@@H](CCC(=O)O)C(=O)N[C@@H](CS)C(=O)N[C@@H](Cc1c[nH]c2ccccc12)C(=O)N1CCC[C@H]1C(=O)N[C@@H](C)C(=O)O)[C@@H](C)O [31-44, ERISSTLNDECWPA] (H-ERISSTLNDECWPA-OH; N-terminus and C-terminus assumed)

EC50 [2]: 100 nM
Compound: CC(C)C[C@H](NC(=O)[C@H](Cc1ccccc1)NC(=O)[C@H](CCC(N)=O)NC(=O)[C@H](CCC(=O)O)NC(=O)[C@H](CCCNC(=N)N)NC(=O)[C@H](CO)NC(=O)[C@@H](NC(=O)[C@H](C)NC(=O)[C@H](CCC(=O)O)NC(=O)[C@H](CC(=O)O)NC(=O)[C@@H]1CCCN1)[C@@H](C)O)C(=O)N1CCC[C@H]1C(=O)N[C@@H](CO)C(=O)O [MELOE-17-19, PDEATSREQFLPS] (H-PDEATSREQFLPS-OH; N-terminus and C-terminus assumed)

EC50 [3]: 100 nM
Compound: CC(C)C[C@H](NC(=O)[C@H](Cc1ccccc1)NC(=O)[C@@H](N)CCC(N)=O)C(=O)N1CCC[C@H]1C(=O)N[C@@H](CO)C(=O)N[C@@H](CCC(=O)O)C(=O)NCC(=O)N[C@@H](C)C(=O)N[C@@H](C)C(=O)N[C@@H](CS)C(=O)N1CCC[C@H]1C(=O)N1CCC[C@H]1C(=O)N[C@@H](Cc1c[nH]c2ccccc12)C(=O)O [MELOE-115-27, QFLPSEGAACPPW] (H-QFLPSEGAACPPW-OH; N-terminus and C-terminus assumed)

Compound: MSCVGYPDEATSREQFLPSEGAACPPWHPSERISSTLNDECWPASL [MELOE-1, MELOE-1 whole antigen (46 amino acids)]
recognition by specific CD4 T cell clones of DC loaded after fixation ([4]; autologous DC loaded after DC fixation): only a weak recognition
reactivity of the four T cell clones against loaded autologous DC ([4]; iDC loaded with 1 μM in serum-free medium, matured, then fixed): reactive

Compound: RISSTLNDECWPA [32-44]
recognition by T cell clone ([1]; 4E2 T cell clone, compared with 31-44): recognized to a lower extent

Compound: SREQFLPSEGAAC [MELOE-112-24]
recognition by T cell clone [5]: optimal shorter peptides

Compound: TSREQFLPSEGAA [MELOE-111-23]
recognition by T cell clone [5]: optimal shorter peptides
